Here are results for nine molecules from US20150342954A1, “2-BENZYL, 3-(PYRIMIDIN-2-YL) SUBSTITUTED PYRAZOLES USEFUL AS SGC STIMULATORS” (IRONWOOD PHARMACEUTICALS, INC., priority 2011, published 2015).

SMILES strings stand for the structures. Where two headings read alike, the source gives them in different places.

For assay [1], the target named is T1, soluble guanylate cyclase (sGC) (Homo sapiens, UniProt Q02108+Q02153).
T1 construct: endogenously expressing soluble guanylate cyclase (sGC); endogenous in cells; host or cells: HEK293
T1 sequence (Q02153 1-619): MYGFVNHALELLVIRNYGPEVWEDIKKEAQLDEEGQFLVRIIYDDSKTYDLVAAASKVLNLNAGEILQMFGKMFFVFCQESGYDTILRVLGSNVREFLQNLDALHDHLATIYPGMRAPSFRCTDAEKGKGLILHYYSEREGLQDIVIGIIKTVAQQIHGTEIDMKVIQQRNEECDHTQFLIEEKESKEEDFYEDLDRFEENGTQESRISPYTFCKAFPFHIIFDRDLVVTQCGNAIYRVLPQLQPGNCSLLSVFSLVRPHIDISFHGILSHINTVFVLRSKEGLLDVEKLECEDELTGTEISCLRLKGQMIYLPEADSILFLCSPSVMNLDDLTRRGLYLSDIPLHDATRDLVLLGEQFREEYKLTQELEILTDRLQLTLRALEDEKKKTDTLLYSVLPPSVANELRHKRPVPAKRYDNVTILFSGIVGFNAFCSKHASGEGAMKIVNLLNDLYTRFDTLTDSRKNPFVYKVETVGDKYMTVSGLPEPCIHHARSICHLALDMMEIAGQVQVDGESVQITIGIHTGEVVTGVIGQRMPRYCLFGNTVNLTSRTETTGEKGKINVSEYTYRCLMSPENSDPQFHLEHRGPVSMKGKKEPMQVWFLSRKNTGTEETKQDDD
T1 sequence (Q02108 1-690): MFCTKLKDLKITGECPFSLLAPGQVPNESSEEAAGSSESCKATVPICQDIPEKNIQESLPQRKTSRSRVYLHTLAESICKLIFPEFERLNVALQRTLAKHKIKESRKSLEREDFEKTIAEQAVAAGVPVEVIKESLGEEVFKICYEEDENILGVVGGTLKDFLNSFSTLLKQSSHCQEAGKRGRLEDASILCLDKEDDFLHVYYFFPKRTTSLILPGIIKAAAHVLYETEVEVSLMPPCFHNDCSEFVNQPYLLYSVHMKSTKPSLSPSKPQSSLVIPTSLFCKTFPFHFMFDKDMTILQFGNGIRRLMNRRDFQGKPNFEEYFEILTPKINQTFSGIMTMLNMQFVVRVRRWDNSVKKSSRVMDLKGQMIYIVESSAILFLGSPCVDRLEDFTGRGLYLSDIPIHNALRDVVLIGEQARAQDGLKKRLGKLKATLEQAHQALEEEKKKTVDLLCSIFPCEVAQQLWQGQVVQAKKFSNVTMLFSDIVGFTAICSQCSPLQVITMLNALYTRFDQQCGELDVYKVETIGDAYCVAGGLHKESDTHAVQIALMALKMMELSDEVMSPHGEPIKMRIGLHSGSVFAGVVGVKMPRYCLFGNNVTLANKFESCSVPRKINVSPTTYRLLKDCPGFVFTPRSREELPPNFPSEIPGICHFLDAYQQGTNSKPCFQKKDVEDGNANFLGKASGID
Nature of the assay: sGC-HEK-cGMP assay (run with SNP incubation). In kind it is cell-based. To be noted: for Emax: Table 3B, 10 μM SNP, 100% = 30 μM BAY 41-2272 with 10 μM SNP, read-out: HEK assay Emax-unconstrained (Percent); for HEK MEC-10: concentration that would elicit 10% of the Emax in the presence of 10 μM SNP; for HEK MEC-10 / EC50: Table 3E; for EC50: in the presence of 10 μM SNP. The method, boiled down: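 HEK293 cells with endogenous sGC were pre-treated 15 min at 37 °C with 0.5 mM IBMX, then exposed to test compound plus sodium nitroprusside for 10 min at 37 °C. Cells were lysed in 0.1 M HCl (4 °C, 30 min), and cGMP was quantified by LC/MS against a standard curve. EC50 values came from concentration-response curves.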

The target in assay [2] is T2, Human soluble guanylate cyclase enzyme (hsGC) (Homo sapiens, UniProt Q02108+Q02153).
T2 construct: purchased Enzo Inc. ALX-201-177
T2 sequence (Q02153 1-619): T1 sequence (Q02153 1-619)
T2 sequence (Q02108 1-690): T1 sequence (Q02108 1-690)
Nature of the assay: Purified human sGC enzyme activity assay (without SNP). In kind it is biochemical. The following applies: compound at 30 μM, absence of SNP; fold over DMSO control; Table 5B. The method, then:
Biological Activity Measurements by the Purified Human sGC Enzyme Activity Assay
(§1) Human soluble guanylate cyclase enzyme (hsGC) obtained from Enzo Inc. (P/N: ALX-201-177) was used to evaluate the activity of test compounds. The assay reactions contained 0.1 M Tris (pH 8.0), 0.5 mg/mL BSA (pH 8.0), 2 mM DTT, 2 mM MgCl2, 300 μM GTP, 1 mM 3-isobutyl-1-methylxanthine (IBMX) and 5 ng human soluble guanylate cyclase enzyme. Test compounds in DMSO were then added (2 μL, 10 or 30 μM final concentration) and incubated (200 μL, 96-well plate format) at 37° C. for 30 minutes. The controls were carried out using 2 μL DMSO. After the 30 minute incubation, the reaction was stopped with the addition of 200 μl of cold methanol. The plate was then centrifuged at 3,200 rpm for 10 minutes at room temperature. Supernatants (200 μL) were collected and transferred to a new 96 well plate for analysis.
(§2) An 8 point cGMP (Sigma-Aldrich P/N: G6129) standard curve was prepared in assay buffer ranging from 0.156-20 μM. Samples for the cGMP standard curve were then diluted with an equal volume of methanol resulting in final cGMP concentrations of 0.078-10 μM.
(§3) The cGMP standard curve was generated using GraphPad Prism Software.
(§4) Calculations: Specific Activity was determined by the amount of cGMP formed (nmoles) per mg of sGC per min. Enzyme “fold-change” was calculated by dividing Specific Activity for test compounds by Specific Activity of DMSO controls.

Assay [3] addresses T2, Human soluble guanylate cyclase enzyme (hsGC). Nature of the assay: Purified human sGC enzyme synergy assay in the presence of 1 μM sodium nitroprusside (SNP). The class given is biochemical. The following applies: compound at 30 μM, presence of 1 μM SNP; Table 5B. The method, then:
as §1, §2, §3, §4
Biological Measurement by the Purified Human sGC Enzyme Synergy Performed in the Presence of Sodium Nitroprusside (SNP), a Nitric Oxide Donor
Enzyme assays were performed as described above, but was done in the absence or presence of 1 μM sodium nitroprusside (SNP).

[4] abbreviates: top of concentration-response curve not fitted to 100%.
Setting [5] is: top of concentration-response curve not fitted to 100%, read-out: HEK assay EC50-unconstrained.

Turning to `Nc1ccnc(-c2cc(-c3ccon3)n(Cc3ccc(F)cc3F)n2)n1` [Compound 71], in assay [1] (setting [4]), the maximal response (Emax) fell in the range of 60 to 80%. The “HEK MEC-10” value in assay [1] is “C (0.1 to <1 μM)”. In addition, the figures for the 50% effective concentration (EC50) in assay [1] (read-out: HEK assay EC50) and in assay [1] (setting [5]) were 60 to 100 µM and 1 to 5 µM, respectively. In addition, in assay [2], the “Enzyme Activity (increase at 30 μM without SNP)” value is recorded as “A (no increase to <2 fold increase)”. Moreover, in assay [3], the “Enzyme Activity (increase at 30 μM with SNP)” value is “D (10 or <20 fold increase)”.
As to `O=c1[nH]c(-c2cc(-c3ccon3)n(Cc3cc(F)ccc3F)n2)ncc1F` [Compound 72], the Emax in assay [1] (setting [4]) fell in the range of 40 to 60%. For the same molecule, the “HEK MEC-10” value in assay [1] is given as “B (0.01 to <0.1 μM)”. The concentration giving a half-maximal response (EC50) in assay [1] (read-out: HEK assay EC50) fell in the range of 40 to 60 µM; in assay [1] (setting [5]), 0.01 to 0.5 µM. Also, the “Enzyme Activity (increase at 30 μM without SNP)” value in assay [2] was “D (10 or <20 fold increase)”. Also, in assay [3], the “Enzyme Activity (increase at 30 μM with SNP)” value is “D (10 or <20 fold increase)”.
For `Nc1ccnc(-c2cc(-c3ccon3)n(Cc3cc(F)ccc3F)n2)n1` [Compound 73], the maximum response (Emax) in assay [1] (setting [4]) is 60 to 80%. Also, the “HEK MEC-10” value in assay [1] is recorded as “C (0.1 to <1 μM)”. The values for the EC50 in assay [1] (read-out: HEK assay EC50) and in assay [1] (setting [5]) were 60 to 100 µM and 0.5 to 1 µM, respectively. The “Enzyme Activity (increase at 30 μM without SNP)” value in assay [2] was “D (10 or <20 fold increase)”. The “Enzyme Activity (increase at 30 μM with SNP)” value in assay [3] is given as “D (10 or <20 fold increase)”.
With `N#Cc1cc(-c2ncc(F)c(=O)[nH]2)nn1Cc1ccccc1F` [Compound 74], the Emax in assay [1] (setting [4]) fell in the range of 40 to 60%. In addition, in assay [1], the “HEK MEC-10” value is recorded as “C (0.1 to <1 μM)”. Also, the EC50 in assay [1] (read-out: HEK assay EC50) was 40 to 60 µM; in assay [1] (setting [5]), 1 to 5 µM. Further, the “Enzyme Activity (increase at 30 μM without SNP)” value in assay [2] is given as “B (2 to <5 fold increase)”. Also, the “Enzyme Activity (increase at 30 μM with SNP)” value in assay [3] is on record as “C (5 to <10 fold increase)”.
For the molecule `O=c1[nH]c(-c2cc(-c3ncon3)n(Cc3cc(F)ccc3F)n2)ncc1F` [Compound 75], the maximal effect (Emax) in assay [1] (setting [4]) fell in the range of 40 to 60%. For the same molecule, the “HEK MEC-10” value in assay [1] is “C (0.1 to <1 μM)”. Besides, the 50% effective concentration (EC50) in assay [1] (read-out: HEK assay EC50) lay in the range of 40 to 60 µM; in assay [1] (setting [5]), 1 to 5 µM. Moreover, the “Enzyme Activity (increase at 30 μM without SNP)” value in assay [2] is listed as “B (2 to <5 fold increase)”. The “Enzyme Activity (increase at 30 μM with SNP)” value in assay [3] is “C (5 to <10 fold increase)”.
Consider `Oc1nc(-c2cc(-c3ccon3)n(Cc3cccc(F)c3F)n2)ncc1Cl` [Compound 76], for which the maximal response (Emax) in assay [1] (setting [4]) is 80 to 100%. Besides, the “HEK MEC-10” value in assay [1] is “B (0.01 to <0.1 μM)”. For the same molecule, the concentration for a half-maximal effect (EC50) in assay [1] (read-out: HEK assay EC50) lay in the range of 60 to 100 µM; in assay [1] (setting [5]) it was 0.01 to 0.5 µM. Besides, the “Enzyme Activity (increase at 30 μM without SNP)” value in assay [2] is reported as “D (10 or <20 fold increase)”. In addition, the “Enzyme Activity (increase at 30 μM with SNP)” value in assay [3] is listed as “E (20 to 30 fold increase)”.
With `O=c1[nH]c(-c2cc(-c3ccon3)n(Cc3cccc(Cl)c3F)n2)ncc1F` [Compound 77], in assay [1] (setting [4]), the maximal effect (Emax) lay in the range of 60 to 80%. Further, in assay [1], the “HEK MEC-10” value is “C (0.1 to <1 μM)”. The concentration giving a half-maximal response (EC50) in assay [1] (read-out: HEK assay EC50) lay within 60 to 100 µM; in assay [1] (setting [5]), 0.01 to 0.5 µM. Also, in assay [2], the “Enzyme Activity (increase at 30 μM without SNP)” value is listed as “C (5 to <10 fold increase)”. Further, in assay [3], the “Enzyme Activity (increase at 30 μM with SNP)” value is listed as “E (20 to 30 fold increase)”.
As for `Nc1ccnc(-c2cc(-c3ccon3)n(Cc3cccc(Cl)c3F)n2)n1` [Compound 78], in assay [1] (setting [4]), the Emax was 80 to 100%. For the same molecule, the “HEK MEC-10” value in assay [1] is listed as “B (0.01 to <0.1 μM)”. Further, the EC50 lay in the range of 60 to 100 µM in assay [1] (read-out: HEK assay EC50) and 0.5 to 1 µM in assay [1] (setting [5]). For the same molecule, the “Enzyme Activity (increase at 30 μM without SNP)” value in assay [2] is given as “C (5 to <10 fold increase)”. The “Enzyme Activity (increase at 30 μM with SNP)” value in assay [3] is “E (20 to 30 fold increase)”.
Turning to `O=c1[nH]c(-c2cc(-c3ccon3)n(Cc3ccccc3F)n2)nc(CF)c1F` [Compound 79], in assay [1] (setting [4]), the maximum response (Emax) was in the range of 40 to 60%. Moreover, the “HEK MEC-10” value in assay [1] is on record as “D (1 to <10 μM)”. Further, the results for the concentration giving a half-maximal response (EC50) in assay [1] (read-out: HEK assay EC50) and in assay [1] (setting [5]) were 40 to 60 µM and 5 to 10 µM, respectively. In addition, in assay [2], the “Enzyme Activity (increase at 30 μM without SNP)” value is recorded as “B (2 to <5 fold increase)”. Also, in assay [3], the “Enzyme Activity (increase at 30 μM with SNP)” value is “D (10 or <20 fold increase)”.

By Emax is commonly meant the greatest response seen or fitted, relative to the assay's reference. Usually EC50 stands for the concentration giving half of the maximal effect.
